As usually defined, the IC50 is the point on the concentration scale where inhibition reaches its midpoint. What is called EC50 is the concentration needed to bring the measured effect to its halfway point. As a reminder, the inhibition is the percentage by which the read-out fell short of the control.

Results on four compounds are retold here after paper PMC12345137 (mBio, 2025).

Experiment [1] has as its target T1, SA AgrC-I (Staphylococcus aureus, UniProt O07911). Nature of the experiment: β-Lactamase assay, reporter strain RN10829 (P2-agrA:P3-blaZ) with pagrC-I. The format is cell-based. From the text: The β-lactamase reporter strain RN10829 (P2-agrA:P3-blaZ) ([62]), with pagrC-I ([63]), pagrC-II, pagrC-III, or pagrC-IV ([11]), substituting the native agr locus with a chromosomal integration of P2-agrA and P3-blaZ and a plasmid from which a wild-type variant of the corresponding AgrC is expressed, was used to assess inhibition and activation of the AgrC receptor via β-lactamase activity in response to varying concentrations of the QS modulating peptides. Overnight cultures of the reporter strains in TSB medium were diluted 1:250 in fresh TSB medium and grown to OD600 = 0.35–0.40 (early exponential phase) at 37°C. Peptide solutions (10 μL) in 1:10 serial dilutions from DMSO stock solutions (1 mM) in TSB medium (final concentrations = 10 μM–10 pM) were added to each well of a clear 96-well plate as well as solutions (10 μL) of cognate AIP (final concentration = 100 nM) in TSB medium followed by 80 μL of bacterial cells. […] The 96-well plates were incubated at 37°C shaking at 200 rpm for 1 h and immediately frozen down at −80°C to minimize growth during nitrocefin treatment. Next, the 96-well plates were thawed, and OD600 values were determined using a plate reader followed by the addition of 50 μL of nitrocefin solution to the wells (final concentration = 33.3 μg/mL). β-Lactamase activity was monitored at OD486 every 20 s for 10 min at 37°C using a plate-reader. Linear nitrocefin conversion rates were plotted to obtain IC50 values by non-linear regression with variable slope using GraphPad Prism 10.4 software. Assays were performed at least as duplicate determinations in biological triplicate.

In experiment [2] the target is T2, SA AgrC-II (Staphylococcus aureus, UniProt O33587). Nature of the experiment: β-Lactamase assay, reporter strain RN10829 (P2-agrA:P3-blaZ) with pagrC-II. The format is cell-based. From the text: (§1) The β-lactamase reporter strain RN10829 (P2-agrA:P3-blaZ) ([62]), with pagrC-I ([63]), pagrC-II, pagrC-III, or pagrC-IV ([11]), substituting the native agr locus with a chromosomal integration of P2-agrA and P3-blaZ and a plasmid from which a wild-type variant of the corresponding AgrC is expressed, was used to assess inhibition and activation of the AgrC receptor via β-lactamase activity in response to varying concentrations of the QS modulating peptides. Overnight cultures of the reporter strains in TSB medium were diluted 1:250 in fresh TSB medium and grown to OD600 = 0.35–0.40 (early exponential phase) at 37°C. Peptide solutions (10 μL) in 1:10 serial dilutions from DMSO stock solutions (1 mM) in TSB medium (final concentrations = 10 μM–10 pM) were added to each well of a clear 96-well plate as well as solutions (10 μL) of cognate AIP (final concentration = 100 nM) in TSB medium followed by 80 μL of bacterial cells. Control wells for 100% β-lactamase activity were wells replacing peptide solution with TSB media (10 μL), and control wells for 0% β-lactamase activity were wells replacing both peptide and cognate AIP solutions with TSB medium (20 μL). The 96-well plates were incubated at 37°C shaking at 200 rpm for 1 h and immediately frozen down at −80°C to minimize growth during nitrocefin treatment. Next, the 96-well plates were thawed, and OD600 values were determined using a plate reader followed by the addition of 50 μL of nitrocefin solution to the wells (final concentration = 33.3 μg/mL). β-Lactamase activity was monitored at OD486 every 20 s for 10 min at 37°C using a plate-reader. Linear nitrocefin conversion rates were plotted to obtain IC50 values by non-linear regression with variable slope using GraphPad Prism 10.4 software. Assays were performed at least as duplicate determinations in biological triplicate.
T2 sequence (O33587 entry or part of it): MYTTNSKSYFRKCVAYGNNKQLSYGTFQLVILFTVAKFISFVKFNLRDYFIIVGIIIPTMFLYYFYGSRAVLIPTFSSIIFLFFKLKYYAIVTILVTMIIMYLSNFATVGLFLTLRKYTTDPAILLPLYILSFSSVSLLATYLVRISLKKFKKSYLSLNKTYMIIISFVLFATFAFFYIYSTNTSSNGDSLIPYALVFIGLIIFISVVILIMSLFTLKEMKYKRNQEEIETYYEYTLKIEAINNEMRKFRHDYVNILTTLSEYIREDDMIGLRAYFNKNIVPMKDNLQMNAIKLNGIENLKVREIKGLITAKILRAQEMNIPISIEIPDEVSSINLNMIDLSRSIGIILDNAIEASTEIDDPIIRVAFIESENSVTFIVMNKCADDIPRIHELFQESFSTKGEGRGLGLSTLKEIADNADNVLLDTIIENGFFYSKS

In experiment [3] the target is T3, SA AgrC-III (Staphylococcus aureus, UniProt O33590). Nature of the experiment: β-Lactamase assay, reporter strain RN10829 (P2-agrA:P3-blaZ) with pagrC-III. The format is cell-based.
T3 sequence (O33590 entry or part of it): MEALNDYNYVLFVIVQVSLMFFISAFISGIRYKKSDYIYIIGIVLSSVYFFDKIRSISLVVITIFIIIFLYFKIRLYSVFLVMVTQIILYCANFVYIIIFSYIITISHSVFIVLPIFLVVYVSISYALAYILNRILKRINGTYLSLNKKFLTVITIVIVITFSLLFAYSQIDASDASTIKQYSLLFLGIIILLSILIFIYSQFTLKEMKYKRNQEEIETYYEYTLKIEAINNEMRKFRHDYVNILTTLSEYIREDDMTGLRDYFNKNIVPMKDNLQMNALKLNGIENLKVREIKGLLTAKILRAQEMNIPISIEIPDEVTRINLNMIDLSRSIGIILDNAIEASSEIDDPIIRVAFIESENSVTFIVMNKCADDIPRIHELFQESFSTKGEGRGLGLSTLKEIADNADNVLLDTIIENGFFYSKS
Description: as §1

Experiment [4] has as its target T4, SA AgrC-IV (Staphylococcus aureus, UniProt Q309Z2). Nature of the experiment: β-Lactamase assay, reporter strain RN10829 (P2-agrA:P3-blaZ) with pagrC-IV. The format is cell-based. The conditions noted are these: 100 nM cognate AIP; ± SEM; -b = no inhibition recorded at the highest AIP concentration tested; -a = only partial inhibition observed; this study (curves in Fig. S22).
Description: as §1

Experiment [5] deals with S. aureus (SA) agr-I. The conditions noted are these: b-lactamase, cited from earlier work.
The subject of experiment [6] is S. aureus (SA) agr-II. The settings on record: b-lactamase, cited from earlier work.
Experiment [7] has as its system S. aureus (SA) agr-III. The settings on record: b-lactamase, cited from earlier work.
Experiment [8] deals with S. aureus (SA) agr-IV. The conditions noted are these: b-lactamase, cited from earlier work.
Experiment [9] deals with T1, SA AgrC-I. The settings on record: ± SEM, determined previously, ref (1), cited from earlier work; for IC50: 100 nM cognate AIP, -b = no inhibition recorded at the highest AIP concentration tested, read-out: IC50, SA AgrC-I, b-lactamase assay.
In experiment [10] the target is T2, SA AgrC-II. The settings on record: ± SEM, determined previously, ref (1), cited from earlier work; for IC50: 100 nM cognate AIP, -b = no inhibition recorded at the highest AIP concentration tested, read-out: IC50, SA AgrC-II, b-lactamase assay.
Experiment [11] concerns the target T3, SA AgrC-III. The conditions noted are these: ± SEM, determined previously, ref (1), cited from earlier work; for IC50: 100 nM cognate AIP.
The target in experiment [12] is T4, SA AgrC-IV. The settings on record: ± SEM, determined previously, ref (1), cited from earlier work; for IC50: 100 nM cognate AIP, -b = no inhibition recorded at the highest AIP concentration tested, read-out: IC50, SA AgrC-IV, b-lactamase assay.
Experiment [13] relates to S. aureus (SA) agr-I. The settings on record: fluorescence; ref (5); cited from earlier work.
The test system of experiment [14] is S. aureus (SA) agr-III. The conditions noted are these: fluorescence; ref (5); cited from earlier work.
Experiment [15] relates to S. aureus (SA) agr-IV. The settings on record: fluorescence; ref (5); cited from earlier work.
In experiment [16] the test system is S. aureus (SA) agr-I. Details: method as in ref (5) (a number printed in a supplementary file, which may have a reference list of its own: not looked up in the article's list). The settings on record: hemolysis; ref (5); cited from earlier work.
The subject of experiment [17] is S. aureus (SA) agr-III. Set-up: method as in ref (5) (a number printed in a supplementary file, which may have a reference list of its own: not looked up in the article's list). The conditions noted are these: hemolysis; ref (5); cited from earlier work.
Experiment [18] deals with S. aureus (SA) agr-IV. Set-up: method as in ref (5) (a number printed in a supplementary file, which may have a reference list of its own: not looked up in the article's list). The settings on record: hemolysis; ref (5); cited from earlier work.
The test system of experiment [19] is S. epidermidis (SE) agr-I. The conditions noted are these: fluorescence, ref (11), cited from earlier work.
The subject of experiment [20] is S. epidermidis (SE) agr-I. Details: method as in ref (9) (a number printed in a supplementary file, which may have a reference list of its own: not looked up in the article's list). The conditions noted are these: HPLC d-toxin, ref (9); cited from earlier work.
Experiment [21] relates to S. aureus (SA) agr-II. Details: method as in ref (5) (a number printed in a supplementary file, which may have a reference list of its own: not looked up in the article's list). The settings on record: hemolysis; ref (5); cited from earlier work.
The test system of experiment [22] is S. aureus (SA) agr-II. The conditions noted are these: fluorescence; ref (5); cited from earlier work.

“And” between values parts separate entries of the source, which are not always exact repeats. Identical values can stand only once. Like-named read-outs stand apart in the source and are kept apart here. Positions of bridges follow the written chain, without caps; N, C: chain ends. Residues, ends and D or L forms follow the SMILES beside them.

T4 sequence (Q309Z2 entry or part of it): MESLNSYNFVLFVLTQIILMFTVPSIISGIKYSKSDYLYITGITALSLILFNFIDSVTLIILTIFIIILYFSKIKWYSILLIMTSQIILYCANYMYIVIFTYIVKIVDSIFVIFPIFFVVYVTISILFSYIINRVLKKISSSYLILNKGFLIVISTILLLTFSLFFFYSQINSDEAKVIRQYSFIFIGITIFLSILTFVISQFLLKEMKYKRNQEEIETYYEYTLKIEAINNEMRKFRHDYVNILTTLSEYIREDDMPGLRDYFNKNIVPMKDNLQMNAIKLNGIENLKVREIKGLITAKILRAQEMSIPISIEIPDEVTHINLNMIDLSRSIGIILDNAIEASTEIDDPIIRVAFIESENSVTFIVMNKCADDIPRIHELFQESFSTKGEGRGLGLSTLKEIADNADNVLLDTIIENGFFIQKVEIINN
T1 sequence (O07911 entry or part of it): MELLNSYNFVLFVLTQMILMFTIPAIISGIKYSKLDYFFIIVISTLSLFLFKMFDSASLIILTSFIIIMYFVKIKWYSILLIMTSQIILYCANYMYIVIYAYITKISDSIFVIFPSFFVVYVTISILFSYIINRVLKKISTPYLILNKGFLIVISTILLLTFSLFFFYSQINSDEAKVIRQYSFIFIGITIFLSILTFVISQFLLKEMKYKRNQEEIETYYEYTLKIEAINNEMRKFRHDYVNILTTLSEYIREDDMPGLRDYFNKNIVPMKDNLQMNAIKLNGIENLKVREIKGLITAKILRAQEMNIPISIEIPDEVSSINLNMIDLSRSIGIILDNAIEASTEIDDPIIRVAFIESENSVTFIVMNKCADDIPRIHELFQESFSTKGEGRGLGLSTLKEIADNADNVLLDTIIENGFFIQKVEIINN

As to `CC[C@H](C)[C@H](NC(=O)[C@@H](N)CCCNC(=N)N)C(=O)N1CCC[C@H]1C(=O)N[C@H](C(=O)N[C@H]1COC(=O)[C@H](Cc2ccccc2)NC(=O)[C@H](Cc2ccccc2)NC(=O)CNC(=O)[C@H]([C@@H](C)O)NC1=O)[C@@H](C)O` [compound 31, S. intermedius AIP-I] (H-RIPTSTGFF; ester 5-C), the IC50 in [1] is 87 ± 20 nM; in [2] it was over 1000 nM; in experiment [3] it was 104 ± 20 nM. Moreover, the “IC50, SA AgrC-IV, b-lactamase assay” value in experiment [4] was “-b”. The “inhibition from supernatant, SA agr-I” value in experiment [5] (from supernatant, ref (16)) is recorded as 80–100%. For the same compound, the “inhibition from supernatant, SA agr-II” value in [6] (from supernatant, ref (16)) was 40–90%. Further, in experiment [7] (from supernatant, ref (16)), the “inhibition from supernatant, SA agr-III” value was 60–100%. For the same compound, the “inhibition from supernatant, SA agr-IV” value in [8] (from supernatant, ref (16)) was 10–60%.

Regarding S. aureus AIP-II [compound 2], the half-maximal inhibitory concentration (IC50) in experiment [9] is 110 ± 12 nM; in experiment [11] (-b = no inhibition recorded at the highest AIP concentration tested, read-out: IC50, SA AgrC-III, b-lactamase assay), 40 ± 15 nM; in experiment [12] it was 230 ± 19 nM; in experiment [5] (ref (2)), 2.9 ± 1.2 nM; in experiment [5] (ref (3)), 90 nM and 78 nM; in experiment [5] (ref (4)), 40 nM. Besides, the IC50 in [5] (ref (8)) was 12 ± 2.9 nM; in experiment [7] (ref (2)), 3.2 ± 1.3 nM; in [7] (ref (4)), 1 nM; in experiment [8] (ref (4)), 86 nM; in experiment [13], 1.62 nM; in experiment [14], 0.53 nM. The IC50 in [15] is 0.4 nM; in experiment [16], 0.89 nM; in experiment [17] it was 3.59 nM; in experiment [18], 1.19 nM; in [19] it was 62.9 nM. Moreover, the half-maximal effective concentration (EC50) in [10] (read-out: EC50, SA AgrC-II, b-lactamase assay) was 3.7 ± 0.5 nM; in experiment [6] (ref (3)), 34 nM and 28 nM; in experiment [6] (ref (4)) it was 30 nM; in experiment [6] (ref (7)) it was 40.9 nM. Besides, in [20], the “inhibition at 1000 nM, SE agr-I” value is “no inhibition”.

As to S. aureus AIP-III [compound 3], the IC50 in [9] was 120 ± 15 nM; in experiment [10], 150 ± 63 nM; in experiment [12] it was over 1000 nM; in experiment [5] (ref (4)) it was 70 nM; in experiment [5] (ref (8)), 8 ± 1.1 nM; in experiment [6] (ref (4)) it was 6 nM. The concentration for half-maximal inhibition (IC50) in experiment [8] (ref (4)) is 150 nM; in experiment [13], 5.05 nM; in [16], 8.07 nM; in experiment [21], 0.46 nM; in experiment [18], 23.8 nM. The concentration giving a half-maximal response (EC50) in [11] (read-out: EC50, SA AgrC-III, b-lactamase assay) is 11 ± 1 nM; in [7] (ref (4)), 26 nM; in experiment [7] (ref (7)), 406 nM. Further, the “inhibition at 1000 nM, SE agr-I” value in [19] (at 1000 nM) and in experiment [20] was “no inhibition” throughout.

In the case of S. aureus AIP-IV [compound 4], the half-maximal effective concentration (EC50) was 59 ± 2 nM in experiment [9] (read-out: EC50, SA AgrC-I, b-lactamase assay); 2.6 ± 0.2 nM in [12] (read-out: EC50, SA AgrC-IV, b-lactamase assay); 62 nM in experiment [5] (ref (4)); 13 nM in [8] (ref (4)); 7.9 nM in experiment [8] (ref (7)). The IC50 in [10] is 47 ± 9 nM; in experiment [11] (only partial inhibition observed, read-out: IC50, SA AgrC-III, b-lactamase assay, only partial inhibition observed (footnote a)), 9.8 ± 0.2 nM; in [6] (ref (4)), 4 nM; in experiment [7] (ref (4)) it was 1 nM; in experiment [22], 0.37 nM; in [14] it was 0.46 nM. In addition, the IC50 in [21] is 0.09 nM; in experiment [17], 1.49 nM; in experiment [19] it was over 1000 nM. Further, the “inhibition at 1000 nM, SE agr-I” value in experiment [20] is reported as 40%.
